Earlier results, collected in patent EP4741436A1, “POLYMERIZABLE COMPOSITION FOR OPTICAL MATERIAL, POLYMERIZABLE PREPOLYMER COMPOSITION FOR OPTICAL MATERIAL, CURED ARTICLE, AND METHOD FOR PRODUCING OPTICAL MATERIAL” (Mitsui Chemicals, Inc., priority 2023, dated 2025).
Read-outs that look alike come from different tables or passages of the source.

Details: for pKa: organic acids and basic polymerization catalysts, values given in text

For `CC1(C)C2CCC1(CS(=O)(=O)O)C(=O)C2` (racemic) [10-camphorsulfonic acid, (±)-10-camphorsulfonic acid], the “pKa of Organic Acid” value (organic acid used in the composition of the column) is listed as 1.17, the pKa is listed as 1.2 and the pKa (listed as (±)-10-camphorsulfonic acid) is listed as 1.17.
In the case of `O=S(=O)(O)c1ccccc1` [benzenesulfonic acid], the pKa is given as 0.7.
For `CCCCS(=O)(=O)O` [butanesulfonic acid], the pKa is given as 1.9.
In the case of `CCS(=O)(=O)O` [ethanesulfonic acid], the pKa is given as 1.8.
In the case of `CCCS(=O)(=O)O` [propanesulfonic acid], the pKa is listed as 1.9.
For `C=CS(=O)(=O)O` [vinylsulfonic acid], the pKa is given as -2.7.
